We go through ten compounds from patent US10017584B2, “6-deoxy-6-thioether-amino acid cyclodextrin derivative and preparation method thereof” (Hangzhou Adamerck Pharmlabs Inc., priority 2010, dated 2018).

The first data set has as its system muscular relaxation induced by rocuronium bromide. The experiment in a line: Reversal of rocuronium bromide induced muscular relaxation in anaesthetised Guinea pigs (TOF-Watch SX monitor). In kind it is in vivo, Guinea pig. As to conditions: Guinea pig; compound 2 mg/kg given when TOFR disappears and T1 decreases more than 80%, after i.v. rocuronium bromide (twice ED90 dose). An excerpt: After pentobarbital sodium anesthesia in the abdominal cavity, the Guinea pigs are fixed on rat boards and connected to small animal ventilators after endotracheal intubation. Stimulating electrodes of a muscular relaxation monitor, TOF-Watch SX, are respectively connected to left post-femur and post-tibialis subcutis of the Guinea pig. Self-made tools are used to fix the left tibialis on a small platform while permitting the left hind paw to be able to move freely. A sensor is fixed on a palm surface of a left hind leg of the Guinea pig and a probe of skin temperature is fixed on a palm surface of a left front leg of the Guinea pig.
“6-per-deoxy-6-per-(N-ethyl-D-cysteine)thioether-β-cyclodextrin [CD-28]”: the “T1 recovering to 25%/time” value was 8.25 min, the “T1 recovering to 50%/time” value came to 12.25 min, the “T1 recovering to 75%/time” value came out at 15.00 min and the “TOF recovering to 50%/time” value amounted to 12.75 min. Besides, the “TOF recovering to 75%/time” value is 16.25 min.

Take “6-per-deoxy-6-per-(N-methyl-D-cysteine)thioether-β-cyclodextrin [CD-26]”: the “T1 recovering to 25%/time” value worked out at 7.75 min, the “T1 recovering to 50%/time” value was 12.25 min, the “T1 recovering to 75%/time” value came out at 16.00 min and the “TOF recovering to 50%/time” value turned out to be 8.00 min. Moreover, the “TOF recovering to 75%/time” value was 11.75 min.

The data set is the same for the next values; noted with them: guinea pig, in vivo, iv, 2 mg/kg.
As to “6-per-deoxy-6-per-(N-ethyl-D-cysteine)thioether-β-cyclodextrin sodium salt [CD-29]”, the “T1 recovering to 25%/time” value stood at 6.75 min, the “T1 recovering to 50%/time” value came out at 8.50 min, the “T1 recovering to 75%/time” value was 9.25 min and the “TOF recovering to 50%/time” value turned out to be 6.50 min. Also, the “TOF recovering to 75%/time” value amounted to 8.25 min.

On to “6-per-deoxy-6-per-(N-methyl-D-cysteine)thioether-β-cyclodextrin sodium salt [CD-27]”, for which the “T1 recovering to 25%/time” value amounted to 8.25 min, the “T1 recovering to 50%/time” value is 11.25 min, the “T1 recovering to 75%/time” value was found to be 16.00 min and the “TOF recovering to 50%/time” value is 8.25 min. In addition, the “TOF recovering to 75%/time” value was determined as 10.75 min.

On to “6-per-deoxy-6-per-(α-L-glycine ethyl)thioether-γ-cyclodextrin [CD-16]”, for which the “T1 recovering to 25%/time” value amounted to 2.25 min, the “T1 recovering to 50%/time” value was determined as 3.50 min, the “T1 recovering to 75%/time” value came out at 8.50 min and the “TOF recovering to 50%/time” value turned out to be 3.50 min. Further, the “TOF recovering to 75%/time” value was 5.75 min.

Turning to “6-per-deoxy-6-per-(α-L-glycine methyl)sulfinyl-γ-cyclodextrin [CD-5]”, the “T1 recovering to 25%/time” value was 3.50 min, the “T1 recovering to 50%/time” value was 4.25 min, the “T1 recovering to 75%/time” value worked out at 8.25 min and the “TOF recovering to 50%/time” value was found to be 4.75 min. The “TOF recovering to 75%/time” value is 7.25 min.

For the compound `N[C@@H](CSC[C@H]1O[C@@H]2O[C@H]3[C@H](O)[C@@H](O)[C@@H](O[C@H]4[C@H](O)[C@@H](O)[C@@H](O[C@H]5[C@H](O)[C@@H](O)[C@@H](O[C@H]6[C@H](O)[C@@H](O)[C@@H](O[C@H]7[C@H](O)[C@@H](O)[C@@H](O[C@H]8[C@H](O)[C@@H](O)[C@@H](O[C@H]9[C@H](O)[C@@H](O)[C@@H](O[C@H]1[C@H](O)[C@H]2O)O[C@@H]9CSC[C@H](N)C(=O)[O-])O[C@@H]8CSC[C@H](N)C(=O)[O-])O[C@@H]7CSC[C@H](N)C(=O)[O-])O[C@@H]6CSC[C@H](N)C(=O)[O-])O[C@@H]5CSC[C@H](N)C(=O)[O-])O[C@@H]4CSC[C@H](N)C(=O)[O-])O[C@@H]3CSC[C@H](N)C(=O)[O-])C(=O)[O-].[Na+].[Na+].[Na+].[Na+].[Na+].[Na+].[Na+].[Na+]` [CD-7, 6-per-deoxy-6-per-(α-L-glycinemethyl)thioether-γ-cyclodextrin sodium salt], the “T1 recovering to 25%/time” value was found to be 1.25 min, the “T1 recovering to 50%/time” value stood at 1.50 min, the “T1 recovering to 75%/time” value was determined as 2.75 min and the “TOF recovering to 50%/time” value amounted to 1.25 min. Further, the “TOF recovering to 75%/time” value stood at 1.50 min.

In the case of `CC(=O)NC(CSC[C@H]1O[C@@H]2O[C@H]3[C@H](O)[C@@H](O)[C@@H](O[C@H]4[C@H](O)[C@@H](O)[C@@H](O[C@H]5[C@H](O)[C@@H](O)[C@@H](O[C@H]6[C@H](O)[C@@H](O)[C@@H](O[C@H]7[C@H](O)[C@@H](O)[C@@H](O[C@H]8[C@H](O)[C@@H](O)[C@@H](O[C@H]9[C@H](O)[C@@H](O)[C@@H](O[C@H]1[C@H](O)[C@H]2O)O[C@@H]9CSCC(NC(C)=O)C(=O)O)O[C@@H]8CSCC(NC(C)=O)C(=O)O)O[C@@H]7CSCC(NC(C)=O)C(=O)O)O[C@@H]6CSCC(NC(C)=O)C(=O)O)O[C@@H]5CSCC(NC(C)=O)C(=O)O)O[C@@H]4CSCC(NC(C)=O)C(=O)O)O[C@@H]3CSCC(NC(C)=O)C(=O)O)C(=O)O` (stereo partly shown) [CD-8, 6-per-deoxy-6-per-(N-acetylglycinemethyl)thioether-γ-cyclodextrin], the “T1 recovering to 50%/time” value was 2.75 min, the “T1 recovering to 75%/time” value came out at 4.25 min, the “TOF recovering to 50%/time” value turned out to be 2.50 min and the “TOF recovering to 75%/time” value came out at 3.50 min.

For the compound `CC(=O)NC(CSC[C@H]1O[C@@H]2O[C@H]3[C@H](O)[C@@H](O)[C@@H](O[C@H]4[C@H](O)[C@@H](O)[C@@H](O[C@H]5[C@H](O)[C@@H](O)[C@@H](O[C@H]6[C@H](O)[C@@H](O)[C@@H](O[C@H]7[C@H](O)[C@@H](O)[C@@H](O[C@H]8[C@H](O)[C@@H](O)[C@@H](O[C@H]9[C@H](O)[C@@H](O)[C@@H](O[C@H]1[C@H](O)[C@H]2O)O[C@@H]9CSCC(NC(C)=O)C(=O)[O-])O[C@@H]8CSCC(NC(C)=O)C(=O)[O-])O[C@@H]7CSCC(NC(C)=O)C(=O)[O-])O[C@@H]6CSCC(NC(C)=O)C(=O)[O-])O[C@@H]5CSCC(NC(C)=O)C(=O)[O-])O[C@@H]4CSCC(NC(C)=O)C(=O)[O-])O[C@@H]3CSCC(NC(C)=O)C(=O)[O-])C(=O)[O-].[Na+].[Na+].[Na+].[Na+].[Na+].[Na+].[Na+].[Na+]` (stereo partly shown) [CD-9, 6-per-deoxy-6-per-(N-acetylglycinemethyl)thioether-γ-cyclodextrin sodium salt], the “T1 recovering to 25%/time” value worked out at 1.25 min, the “T1 recovering to 50%/time” value is 1.75 min, the “TOF recovering to 50%/time” value was determined as 1.50 min and the “TOF recovering to 75%/time” value was found to be 3.25 min.

Another data set concerns small mice. The data set can be described thus: Toxic reactions after intravenous tail injection in male small mice. As to conditions: intravenous injection at the tail, 200 mg/ml, 4000 mg/kg.
Excerpt: Male small mice are processed with intravenous injection with compounds of the present invention at the tails.
With `N[C@@H](CSC[C@H]1O[C@@H]2O[C@H]3[C@H](O)[C@@H](O)[C@@H](O[C@H]4[C@H](O)[C@@H](O)[C@@H](O[C@H]5[C@H](O)[C@@H](O)[C@@H](O[C@H]6[C@H](O)[C@@H](O)[C@@H](O[C@H]7[C@H](O)[C@@H](O)[C@@H](O[C@H]8[C@H](O)[C@@H](O)[C@@H](O[C@H]9[C@H](O)[C@@H](O)[C@@H](O[C@H]1[C@H](O)[C@H]2O)O[C@@H]9CSC[C@H](N)C(=O)[O-])O[C@@H]8CSC[C@H](N)C(=O)[O-])O[C@@H]7CSC[C@H](N)C(=O)[O-])O[C@@H]6CSC[C@H](N)C(=O)[O-])O[C@@H]5CSC[C@H](N)C(=O)[O-])O[C@@H]4CSC[C@H](N)C(=O)[O-])O[C@@H]3CSC[C@H](N)C(=O)[O-])C(=O)[O-].[Na+].[Na+].[Na+].[Na+].[Na+].[Na+].[Na+].[Na+]` [CD-7, 6-per-deoxy-6-per-(α-L-glycinemethyl)thioether-γ-cyclodextrin sodium salt], the “result description (toxic reactions)” value was “normal”.

With `CC(=O)NC(CSC[C@H]1O[C@@H]2O[C@H]3[C@H](O)[C@@H](O)[C@@H](O[C@H]4[C@H](O)[C@@H](O)[C@@H](O[C@H]5[C@H](O)[C@@H](O)[C@@H](O[C@H]6[C@H](O)[C@@H](O)[C@@H](O[C@H]7[C@H](O)[C@@H](O)[C@@H](O[C@H]8[C@H](O)[C@@H](O)[C@@H](O[C@H]9[C@H](O)[C@@H](O)[C@@H](O[C@H]1[C@H](O)[C@H]2O)O[C@@H]9CSCC(NC(C)=O)C(=O)[O-])O[C@@H]8CSCC(NC(C)=O)C(=O)[O-])O[C@@H]7CSCC(NC(C)=O)C(=O)[O-])O[C@@H]6CSCC(NC(C)=O)C(=O)[O-])O[C@@H]5CSCC(NC(C)=O)C(=O)[O-])O[C@@H]4CSCC(NC(C)=O)C(=O)[O-])O[C@@H]3CSCC(NC(C)=O)C(=O)[O-])C(=O)[O-].[Na+].[Na+].[Na+].[Na+].[Na+].[Na+].[Na+].[Na+]` (stereo partly shown) [CD-9, 6-per-deoxy-6-per-(N-acetylglycinemethyl)thioether-γ-cyclodextrin sodium salt], the “result description (toxic reactions)” value is “normal”.

As for `N[C@H](CSC[C@H]1O[C@@H]2O[C@H]3[C@H](O)[C@@H](O)[C@@H](O[C@H]4[C@H](O)[C@@H](O)[C@@H](O[C@H]5[C@H](O)[C@@H](O)[C@@H](O[C@H]6[C@H](O)[C@@H](O)[C@@H](O[C@H]7[C@H](O)[C@@H](O)[C@@H](O[C@H]8[C@H](O)[C@@H](O)[C@@H](O[C@H]1[C@H](O)[C@H]2O)O[C@@H]8CSC[C@@H](N)C(=O)[O-])O[C@@H]7CSC[C@@H](N)C(=O)[O-])O[C@@H]6CSC[C@@H](N)C(=O)[O-])O[C@@H]5CSC[C@@H](N)C(=O)[O-])O[C@@H]4CSC[C@@H](N)C(=O)[O-])O[C@@H]3CSC[C@@H](N)C(=O)[O-])C(=O)[O-].[Na+].[Na+].[Na+].[Na+].[Na+].[Na+].[Na+]` [CD-25, 6-per-deoxy-6-per-(α-D-glycinemethyl)thioether-β-cyclodextrin sodium salt], the “result description (toxic reactions)” value was “normal”.
